According to US20200079793A1, “COMPOUNDS AND METHODS FOR MODULATING ADENOSINE A2B RECEPTOR AND ADENOSINE A2A RECEPTOR” (CORVUS PHARMACEUTICALS, INC., priority 2018, published 2020):

Legend:
Adenosine A2B Receptor = target: T1, Adenosine A2B Receptor (Homo sapiens, UniProt P29275); assay: Activity assay of adenosine receptor modulators, Adenosine A2B Receptor (Table 1); type: biochemical; details: cAMP; read-out: A2BR cAMP IC50
T1 sequence (P29275 1-332): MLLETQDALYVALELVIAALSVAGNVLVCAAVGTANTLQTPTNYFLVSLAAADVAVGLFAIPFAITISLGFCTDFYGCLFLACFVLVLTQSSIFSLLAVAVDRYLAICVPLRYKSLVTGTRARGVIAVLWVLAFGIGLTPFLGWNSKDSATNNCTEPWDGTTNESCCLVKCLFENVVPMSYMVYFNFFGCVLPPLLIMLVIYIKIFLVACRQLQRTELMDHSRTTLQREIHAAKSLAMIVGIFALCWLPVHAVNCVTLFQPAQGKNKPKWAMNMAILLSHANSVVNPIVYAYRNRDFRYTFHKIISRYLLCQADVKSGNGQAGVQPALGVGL
Protocol: (§1) Compounds (e.g., adenosine receptor modulators) were tested for its biological activity. The assay results in Table 1 indicate (+ means >1 μM; ++ means 100 nM to 1 μM; +++ means <100 nM).

Adenosine A2A Receptor = Adenosine A2A Receptor (Homo sapiens, UniProt P29274); assay: Activity assay of adenosine receptor modulators, Adenosine A2A Receptor (Table 1); type: biochemical; details: cAMP; read-out: A2AR cAMP IC50
Sequence of Adenosine A2A Receptor (P29274 whole entry): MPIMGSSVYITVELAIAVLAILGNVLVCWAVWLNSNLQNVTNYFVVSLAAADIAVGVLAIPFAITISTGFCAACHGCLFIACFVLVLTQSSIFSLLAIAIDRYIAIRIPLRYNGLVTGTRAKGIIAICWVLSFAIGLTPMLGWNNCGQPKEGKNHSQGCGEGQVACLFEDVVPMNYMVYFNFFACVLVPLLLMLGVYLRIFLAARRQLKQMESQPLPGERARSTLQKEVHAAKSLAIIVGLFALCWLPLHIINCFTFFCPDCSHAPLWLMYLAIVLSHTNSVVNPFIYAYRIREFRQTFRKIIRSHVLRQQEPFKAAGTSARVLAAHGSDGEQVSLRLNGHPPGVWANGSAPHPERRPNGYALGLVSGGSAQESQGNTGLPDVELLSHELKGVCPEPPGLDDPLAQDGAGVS
Protocol: as §1

A3R = target: T2, A3R (Homo sapiens, UniProt P0DMS8); assay: Activity assay of adenosine receptor modulators, A3R cAMP (Table 1); type: cell-based
T2 sequence (P0DMS8 1-318): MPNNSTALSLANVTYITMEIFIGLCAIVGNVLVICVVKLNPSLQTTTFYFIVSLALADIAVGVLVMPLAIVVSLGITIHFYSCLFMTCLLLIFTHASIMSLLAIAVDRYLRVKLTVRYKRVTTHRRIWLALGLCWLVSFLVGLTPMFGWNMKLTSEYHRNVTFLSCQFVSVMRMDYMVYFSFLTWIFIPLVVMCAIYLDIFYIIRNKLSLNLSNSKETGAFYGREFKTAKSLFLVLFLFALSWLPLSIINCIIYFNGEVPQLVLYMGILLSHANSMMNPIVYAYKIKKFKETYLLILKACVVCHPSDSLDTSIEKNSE
Protocol: as §1

A1R = target: T3, A1R (Homo sapiens, UniProt P30542); assay: Activity assay of adenosine receptor modulators, A1R cAMP (Table 1); type: cell-based
T3 sequence (P30542 1-326): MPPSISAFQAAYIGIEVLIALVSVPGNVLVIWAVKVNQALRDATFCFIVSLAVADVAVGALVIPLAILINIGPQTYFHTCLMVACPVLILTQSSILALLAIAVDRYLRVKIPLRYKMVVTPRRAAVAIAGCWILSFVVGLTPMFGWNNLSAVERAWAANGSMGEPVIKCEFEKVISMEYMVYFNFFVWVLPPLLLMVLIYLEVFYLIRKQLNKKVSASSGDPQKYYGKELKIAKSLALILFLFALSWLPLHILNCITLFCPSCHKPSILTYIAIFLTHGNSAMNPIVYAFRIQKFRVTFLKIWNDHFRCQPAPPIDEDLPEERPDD
Protocol: as §1

| Compound | IC50 (Adenosine A2B Receptor) [nM] | IC50 (Adenosine A2A Receptor) [nM] | IC50 (A3R) [nM] | IC50 (A1R) [nM] |
| --- | --- | --- | --- | --- |
| Cc1nc2nc(N[C@@H](C)c3ccccn3)nc(C(=O)N3CC[C@H](O)C3)c2s1 [Example 17, ((S)-3-Hydroxypyrrolidin-1-yl)(2-methyl-5-(((S)-1-(pyridin-2-yl)ethyl)amino)thiazolo[4,5-d]pyrimidin-7-yl)methanone] | < 100 | > 1000 | > 1000 | > 1000 |
| Cc1nc2nc(N[C@@H](C)c3cncc(F)c3)nc(C(=O)NCC3CCOCC3)c2s1 [Example 11, (S)-5-((1-(5-Fluoropyridin-3-yl)ethyl)amino)-2-methyl-N-((tetrahydro-2H-pyran-4-yl)methyl)thiazolo[4,5-d]pyrimidine-7-carboxamide] | < 100 | 100 to 1000 | > 1000 | 100 to 1000 |
| Cc1nc2nc(N[C@@H](C)c3cccnc3)nc(C(=O)N3CC(NC(=O)C4CCC4)C3)c2s1 [Example 75, N-[1-[2-Methyl-5-[[(S)-1-(3-pyridyl)ethyl]amino]thiazolo[4,5-d]pyrimidine-7-carbonyl]azetidin-3-yl]cyclobutanecarboxamide] | 100 to 1000 | < 100 | > 1000 | > 1000 |
| Cc1nc2nc(N[C@@H](C)c3cncc(F)c3)nc(C(=O)N3CC(NC(=O)C4CCC4)C3)c2s1 [Example 56, (S)—N-(1-(5-((1-(5-Fluoropyridin-3-yl)ethyl)amino)-2-methylthiazolo[4,5-d]pyrimidine-7-carbonyl)azetidin-3-yl)cyclobutanecarboxamide] | < 100 | < 100 | < 100 | > 1000 |
| CC(=O)N[C@H]1CCN(C(=O)c2nc(N[C@@H](C)c3cncc(F)c3)nc3nc(C)sc23)C1 [Example 29, N—((S)-1-(5-(((S)-1-(5-Fluoropyridin-3-yl)ethyl)amino)-2-methylthiazolo[4,5-d]pyrimidine-7-carbonyl)pyrrolidin-3-yl)acetamide] | < 100 | 100 to 1000 | 100 to 1000 | > 1000 |
| Cc1nc2nc(N[C@@H](C)c3cncc(F)c3)nc(C(=O)N3CC[C@H](CO)C3)c2s1 [Example 50, (5-(((S)-1-(5-Fluoropyridin-3-yl)ethyl)amino)-2-methylthiazolo[4,5-d]pyrimidin-7-yl)((S)-3-(hydroxymethyl)pyrrolidin-1-yl)methanone] | < 100 | 100 to 1000 | > 1000 | > 1000 |
| CC(=O)Nc1ccc(CCNC(=O)c2nc(N[C@@H](C)c3cncc(F)c3)nc3nc(C)sc23)cc1 [Example 24, (S)—N-(4-Acetamidophenethyl)-5-((1-(5-fluoropyridin-3-yl)ethyl)amino)-2-methylthiazolo[4,5-d]pyrimidine-7-carboxamide] | < 100 | > 1000 | > 1000 | > 1000 |
| Cc1nc2nc(N[C@@H](C)c3cncc(F)c3)nc(C(=O)N3CC[C@H](O)C3)c2s1 [Example 4, (5-(((S)-1-(5-Fluoropyridin-3-yl)ethyl)amino)-2-methylthiazolo[4,5-d]pyrimidin-7-yl)((S)-3-hydroxypyrrolidin-1-yl)methanone] | < 100 | > 1000 | > 1000 | > 1000 |
| Cc1nc2nc(N[C@@H](C)c3cncc(F)c3)nc(C(=O)N3CC(NC(=O)Nc4ccccc4)C3)c2s1 [Example 65, (S)-1-(1-(5-((1-(5-Fluoropyridin-3-yl)ethyl)amino)-2-methylthiazolo[4,5-d]pyrimidine-7-carbonyl)azetidin-3-yl)-3-phenylurea] | 100 to 1000 | < 100 | 100 to 1000 | > 1000 |
| CCNC(=O)C1CCN(C(=O)c2nc(N[C@@H](C)c3cncc(F)c3)nc3nc(C)sc23)C1 (stereo partly drawn) [Example 38, N-ethyl-1-(5-(((S)-1-(5-fluoropyridin-3-yl)ethyl)amino)-2-methylthiazolo[4,5-d]pyrimidine-7-carbonyl)pyrrolidine-3-carboxamide] | < 100 | > 1000 | > 1000 | > 1000 |
| Cc1nc2nc(N[C@@H](C)c3cncc(F)c3)nc(C(=O)N3CC(NC(=O)C4(C(F)(F)F)CC4)C3)c2s1 [Example 70, (S)—N-(1-(5-((1-(5-Fluoropyridin-3-yl)ethyl)amino)-2-methylthiazolo[4,5-d]pyrimidine-7-carbonyl)azetidin-3-yl)-1-(trifluoromethyl)cyclopropane-1-carboxamide] | < 100 | < 100 | 100 to 1000 | > 1000 |
| Cc1nc2nc(N[C@@H](C)c3cccnc3)nc(C(=O)N3CCCC3)c2s1 [Example 6, (S)-(2-Methyl-5-((1-(pyridin-3-yl)ethyl)amino)thiazolo[4,5-d]pyrimidin-7-yl)(pyrrolidin-1-yl)methanone] | < 100 | 100 to 1000 | 100 to 1000 | > 1000 |
| Cc1nc2nc(N[C@@H](C)c3cncc(F)c3)nc(C(=O)NC[C@@H]3CCOC3)c2s1 [Example 13, 5-(((S)-1-(5-Fluoropyridin-3-yl)ethyl)amino)-2-methyl-N—(((S)-tetrahydrofuran-3-yl)methyl)thiazolo[4,5-d]pyrimidine-7-carboxamide] | < 100 | 100 to 1000 | 100 to 1000 | 100 to 1000 |
| CO[C@H]1CCN(C(=O)c2nc(N[C@@H](C)c3cncc(F)c3)nc3nc(C)sc23)C1 [Example 41, (5-(((S)-1-(5-Fluoropyridin-3-yl)ethyl)amino)-2-methylthiazolo[4,5-d]pyrimidin-7-yl)((S)-3-methoxypyrrolidin-1-yl)methanone] | < 100 | > 1000 | > 1000 | > 1000 |
| CC(=O)NC[C@@H]1CCN(C(=O)c2nc(N[C@@H](C)c3cncc(F)c3)nc3nc(C)sc23)C1 [Example 52, N—(((S)-1-(5-(((S)-1-(5-Fluoropyridin-3-yl)ethyl)amino)-2-methylthiazolo[4,5-d]pyrimidine-7-carbonyl)pyrrolidin-3-yl)methyl)acetamide] | < 100 | > 1000 | > 1000 | > 1000 |
| Cc1nc2nc(N[C@@H](C)c3cncc(F)c3)nc(C(=O)N3CCCC3)c2s1 [Example 1, (S)-(5-((1-(5-Fluoropyridin-3-yl)ethyl)amino)-2-methylthiazolo[4,5-d]pyrimidin-7-yl)(pyrrolidin-1-yl)methanone] | < 100 | 100 to 1000 | 100 to 1000 | > 1000 |
| Cc1nc2nc(N[C@@H](C)c3ccccn3)nc(C(=O)N3CC(NC(=O)Nc4ccccc4)C3)c2s1 [Example 78, 1-[1-[2-Methyl-5-[[(S)-1-(2-pyridyl)ethyl]amino]thiazolo[4,5-d]pyrimidine-7-carbonyl]azetidin-3-yl]-3-phenyl-urea] | 100 to 1000 | < 100 | > 1000 | > 1000 |
| Cc1nc2nc(N[C@@H](C)c3cncc(F)c3)nc(C(=O)N3CCC3)c2s1 [Example 2, (S)-Azetidin-1-yl(5-((1-(5-fluoropyridin-3-yl)ethyl)amino)-2-methylthiazolo[4,5-d]pyrimidin-7-yl)methanone] | < 100 | 100 to 1000 | 100 to 1000 | > 1000 |
| Cc1nc2nc(N[C@@H](C)c3cncc(F)c3)nc(C(=O)N3CC(NC(=O)C45CCC(CC4)CC5)C3)c2s1 [Example 67, (S)—N-(1-(5-((1-(5-Fluoropyridin-3-yl)ethyl)amino)-2-methylthiazolo[4,5-d]pyrimidine-7-carbonyl)azetidin-3-yl)bicyclo[2.2.2]octane-1-carboxamide] | < 100 | < 100 | < 100 | > 1000 |
| Cc1nc2nc(N[C@@H](C)c3cccnc3)nc(C(=O)N3CC(NC(=O)C(C)(C)C)C3)c2s1 [Example 64, (S)—N-(1-(2-Methyl-5-((1-(pyridin-3-yl)ethyl)amino)thiazolo[4,5-d]pyrimidine-7-carbonyl)azetidin-3-yl)pivalamide] | 100 to 1000 | < 100 | 100 to 1000 | > 1000 |
